# Source: ChEMBL document CHEMBL6087449, “Identification of an Isoxazole Derivative as an Antitubercular Compound for Targeting the FadD Enzymes of Mycobacterium tuberculosis” (J Med Chem, 2025)
# pKi: −log10 of the molar value. Calls of active or inactive are those of the source. The rule behind the calls is not given here.
# Experiments:
# [1] = tested on: Mycobacterium tuberculosis; assay: Downregulation of CarD mRNA expression in Mycobacterium tuberculosis assessed as fold change by qRT-PCR analysis; format: functional
# [2] = tested on: Mycobacterium tuberculosis; assay: Downregulation of esxH mRNA expression in Mycobacterium tuberculosis assessed as fold change by qRT-PCR analysis; format: functional
# [3] = tested on: Mycobacterium tuberculosis; assay: Downregulation of hspX mRNA expression in Mycobacterium tuberculosis assessed as fold change by qRT-PCR analysis; format: functional
# [4] = Toxicity in BALB/c mouse assessed as body weight loss at 2.5 mg/kg, ip measured for 14 days; format: organism-based; settings: in vivo, 336 h, time 14 day
# [5] = Toxicity in BALB/c mouse assessed as change in SGPT level in serum at 2.5 mg/kg, ip measured for 14 days; format: organism-based; settings: in vivo, 336 h, time 14 day
# [6] = tested on: Mycolicibacterium smegmatis; assay: Antimycobacterial activity against Mycobacterium smegmatis assessed as inhibition of bacterial growth incubated for 5 days by Alamar Blue based assay; format: functional, organism-based; settings: 120 h
# THP-1 = assay: Cytotoxicity against PMA-differentiated human THP-1 cells assessed as reduction in cell viability at 25 microg/ml incubated for 24 hrs by MTT assay; format: toxicity, cell-based; settings: thp-1, 24 h, dose 25 µg/ml
# [7] = Toxicity in BALB/c mouse assessed as change in BUN level in serum at 2.5 mg/kg, ip measured for 14 days; format: organism-based; settings: in vivo, 336 h, time 14 day
# [8] = tested on: Mycobacterium tuberculosis; assay: Antitubercular activity against Mycobacterium tuberculosis infected in human THP-1 cells assessed as reduction in colony forming units at 5 to 9 microg/ml incubated for 48 hrs; format: functional, organism-based; settings: dose 5-9 µg/ml
# [9] = tested on: Mycobacterium tuberculosis; assay: Antitubercular activity against Mycobacterium tuberculosis H37Rv assessed as inhibition of bacterial growth incubated for 5 days by Alamar Blue based assay; format: functional, organism-based; settings: 120 h
# [10] = tested on: Mycobacterium tuberculosis; assay: Antitubercular activity against Mycobacterium tuberculosis infected in human THP-1 cells assessed as reduction in colony forming units at 5 to 9 microg/ml incubated for 48 hrs in presence of ethambutol; format: functional, organism-based; settings: dose 5-9 µg/ml
# [11] = tested on: Mycobacterium tuberculosis; assay: Antitubercular activity against Mycobacterium tuberculosis H37Rv infected in BALB/c mouse chronic model assessed as reduction in tubercular granulomas at 2.5 mg/kg, ip measured after 4 weeks by H and E staining based analysis; format: functional, organism-based
# [12] = tested on: Mycobacterium tuberculosis; assay: Downregulation of murE mRNA expression in Mycobacterium tuberculosis assessed as fold change by qRT-PCR analysis; format: functional
# [13] = biological target: T1, Long-chain-fatty-acid--AMP ligase FadD32 (Mycobacterium tuberculosis (strain ATCC 25618 / H37Rv), UniProt O53580); assay: Partial noncompetitive inhibition of Mycobacterium tuberculosis H37Rv recombinant FadD32 assessed as inhibition constant in presence of ATP by Lineweaver-burk plot analysis
# T1 sequence (O53580 whole entry): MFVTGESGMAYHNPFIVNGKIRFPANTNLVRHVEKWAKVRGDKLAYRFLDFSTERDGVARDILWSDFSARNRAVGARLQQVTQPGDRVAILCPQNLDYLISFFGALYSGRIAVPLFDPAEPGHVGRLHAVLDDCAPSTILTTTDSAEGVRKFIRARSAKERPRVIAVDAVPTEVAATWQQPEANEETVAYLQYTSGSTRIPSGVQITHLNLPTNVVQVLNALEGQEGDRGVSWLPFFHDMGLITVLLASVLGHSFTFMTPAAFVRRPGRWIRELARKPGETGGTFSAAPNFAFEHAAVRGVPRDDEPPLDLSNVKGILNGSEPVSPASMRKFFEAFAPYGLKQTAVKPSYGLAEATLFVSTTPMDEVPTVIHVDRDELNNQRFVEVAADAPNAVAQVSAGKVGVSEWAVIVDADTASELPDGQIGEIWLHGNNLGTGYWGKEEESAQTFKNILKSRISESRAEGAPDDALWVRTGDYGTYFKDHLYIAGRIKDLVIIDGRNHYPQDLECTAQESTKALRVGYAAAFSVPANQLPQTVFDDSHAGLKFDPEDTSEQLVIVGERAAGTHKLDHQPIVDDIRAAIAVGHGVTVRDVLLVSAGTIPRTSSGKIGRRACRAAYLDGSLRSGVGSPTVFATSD
# [14] = tested on: Mycobacterium tuberculosis; assay: Antitubercular activity against Mycobacterium tuberculosis H37Rv assessed as inhibition of bacterial growth incubated for 5 days in presence of isoniazid by Alamar Blue based assay; format: functional, organism-based; settings: time 5.0 day
# [15] = Toxicity in BALB/c mouse assessed as change in SGOT level in serum at 2.5 mg/kg, ip measured for 14 days; format: organism-based; settings: in vivo, 336 h, time 14 day
# [16] = tested on: Mycobacterium tuberculosis; assay: Antitubercular activity against Mycobacterium tuberculosis infected in mouse RAW264.7 cells assessed as reduction in colony forming units at 5 to 9 microg/ml incubated for 48 hrs in presence of rifampin; format: functional, organism-based; settings: dose 5-9 µg/ml
# [17] = tested on: Mycobacterium tuberculosis; assay: Downregulation of groES mRNA expression in Mycobacterium tuberculosis assessed as fold change by qRT-PCR analysis; format: functional
# [18] = tested on: Mycobacterium tuberculosis; assay: Antitubercular activity against Mycobacterium tuberculosis infected in mouse RAW264.7 cells assessed as reduction in colony forming units at 5 to 9 microg/ml incubated for 48 hrs in presence of isoniazid; format: functional, organism-based; settings: dose 5-9 µg/ml
# [19] = tested on: Mycobacterium tuberculosis; assay: Antitubercular activity against Mycobacterium tuberculosis infected in human THP-1 cells assessed as reduction in colony forming units at 5 to 9 microg/ml incubated for 48 hrs in presence of rifampin; format: functional, organism-based; settings: dose 5-9 µg/ml
# [20] = Toxicity in BALB/c mouse assessed as animal survival at 2.5 mg/kg, ip measured for 14 days; format: organism-based; settings: in vivo, 336 h, time 14 day
# [21] = Toxicity in BALB/c mouse assessed as change in creatine level in serum at 2.5 mg/kg, ip measured for 14 days; format: organism-based; settings: in vivo, 336 h, time 14 day
# RAW264.7 = assay: Cytotoxicity against mouse RAW264.7 cells assessed as cell viability at 25 microg/ml incubated for 24 hrs by MTT assay; format: toxicity, cell-based; settings: raw264.7, 24 h, dose 25 µg/ml
# [22] = tested on: Mycobacterium tuberculosis; assay: Antitubercular activity against Mycobacterium tuberculosis infected in human THP-1 cells assessed as reduction in colony forming units at 5 to 9 microg/ml incubated for 48 hrs in presence of isoniazid; format: functional, organism-based; settings: dose 5-9 µg/ml
# [23] = tested on: Mycobacterium tuberculosis; assay: Antitubercular activity against Mycobacterium tuberculosis infected in mouse RAW264.7 cells assessed as reduction in colony forming units at 5 to 9 microg/ml incubated for 48 hrs; format: functional, organism-based; settings: dose 5-9 µg/ml
# [24] = biological target: T2, Long-chain-fatty-acid--AMP ligase FadD32 (Mycobacterium tuberculosis (strain ATCC 25618 / H37Rv)) (UniProt O53580); assay: Inhibition of Mycobacterium tuberculosis H37Rv recombinant FadD32 upto 200 uM in presence of lauric acid by Michaelis-Menten plot analysis
# T2 sequence (whole entry): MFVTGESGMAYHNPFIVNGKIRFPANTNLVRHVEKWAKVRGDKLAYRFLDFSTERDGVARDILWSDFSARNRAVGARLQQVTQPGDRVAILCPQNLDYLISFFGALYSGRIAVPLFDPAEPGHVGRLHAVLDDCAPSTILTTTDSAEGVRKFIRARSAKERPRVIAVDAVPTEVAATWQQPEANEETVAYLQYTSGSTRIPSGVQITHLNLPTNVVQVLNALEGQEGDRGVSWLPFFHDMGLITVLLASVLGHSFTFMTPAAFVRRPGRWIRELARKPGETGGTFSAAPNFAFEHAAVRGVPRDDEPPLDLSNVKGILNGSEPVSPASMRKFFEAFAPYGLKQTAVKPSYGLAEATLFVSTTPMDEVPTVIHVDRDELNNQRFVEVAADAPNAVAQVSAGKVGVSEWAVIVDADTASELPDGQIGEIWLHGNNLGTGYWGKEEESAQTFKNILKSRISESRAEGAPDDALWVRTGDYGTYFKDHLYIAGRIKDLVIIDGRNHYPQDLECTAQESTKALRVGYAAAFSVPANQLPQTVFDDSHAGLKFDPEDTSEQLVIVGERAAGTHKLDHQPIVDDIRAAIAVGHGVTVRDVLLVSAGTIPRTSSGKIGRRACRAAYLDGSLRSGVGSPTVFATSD
# [25] = biological target: T3, Long-chain-fatty-acid--AMP ligase FadD28 (Mycobacterium tuberculosis) (UniProt P9WQ59); assay: Inhibition of Mycobacterium tuberculosis H37Rv recombinant fadD28 at 200 uM relative to control
# T3 sequence (whole entry): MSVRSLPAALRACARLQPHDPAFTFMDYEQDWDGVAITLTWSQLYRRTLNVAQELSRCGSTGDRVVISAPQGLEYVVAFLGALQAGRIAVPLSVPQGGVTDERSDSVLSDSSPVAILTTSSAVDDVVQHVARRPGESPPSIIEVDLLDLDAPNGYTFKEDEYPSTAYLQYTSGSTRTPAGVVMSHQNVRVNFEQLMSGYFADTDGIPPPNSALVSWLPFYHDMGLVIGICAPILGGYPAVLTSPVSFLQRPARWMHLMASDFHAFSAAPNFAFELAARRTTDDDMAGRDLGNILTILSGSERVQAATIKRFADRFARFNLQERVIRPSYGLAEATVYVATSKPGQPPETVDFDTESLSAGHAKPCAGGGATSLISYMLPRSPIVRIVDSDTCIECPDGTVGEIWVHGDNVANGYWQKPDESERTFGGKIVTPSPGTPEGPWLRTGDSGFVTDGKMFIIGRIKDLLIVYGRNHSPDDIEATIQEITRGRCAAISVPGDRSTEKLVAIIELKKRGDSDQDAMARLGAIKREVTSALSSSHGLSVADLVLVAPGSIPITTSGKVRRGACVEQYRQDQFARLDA
# [26] = tested on: Mycobacterium tuberculosis; assay: Antitubercular activity against Mycobacterium tuberculosis infected in mouse RAW264.7 cells assessed as reduction in colony forming units at 5 to 9 microg/ml incubated for 48 hrs in presence of ethambutol; format: functional, organism-based; settings: dose 5-9 µg/ml
# Escherichia coli = assay: Antibacterial activity against Escherichia coli assessed as inhibition of bacterial growth upto 200 microg/ml incubated for 5 days by Alamar Blue based assay; format: functional, organism-based; settings: dose <= 200.0 µg/ml, time 5.0 day
# [27] = tested on: Mycobacterium tuberculosis; assay: Downregulation of fadD32 mRNA expression in Mycobacterium tuberculosis assessed as fold change by qRT-PCR analysis; format: functional
# [28] = tested on: Mycobacterium tuberculosis; assay: Downregulation of fadD28 mRNA expression in Mycobacterium tuberculosis assessed as fold change by qRT-PCR analysis; format: functional
# [29] = Toxicity in BALB/c mouse assessed as change in ALP level in serum at 2.5 mg/kg, ip measured for 14 days; format: organism-based; settings: in vivo, 336 h, time 14 day
# [30] = tested on: Mycobacterium tuberculosis; assay: Downregulation of PKS13 mRNA expression in Mycobacterium tuberculosis assessed as fold change by qRT-PCR analysis; format: functional
# [31] = tested on: Mycobacterium tuberculosis; assay: Antitubercular activity against Mycobacterium tuberculosis H37Rv infected in BALB/c mouse chronic model assessed as reduction in reduction in mycobacterial burden in lung at 2.5 mg/kg, ip measured after 21 to 25 days by H and E staining based analysis; format: functional, organism-based; settings: time 21-25 day
# [32] = tested on: Mycobacterium tuberculosis; assay: Antitubercular activity against Mycobacterium tuberculosis H37Rv assessed as inhibition of bacterial growth incubated for 5 days in presence of rifampicin by Alamar Blue based assay; format: functional, organism-based; settings: time 5.0 day
# [33] = tested on: Mycobacterium tuberculosis; assay: Downregulation of papA mRNA expression in Mycobacterium tuberculosis assessed as fold change by qRT-PCR analysis; format: functional
# [34] = biological target: T2, Long-chain-fatty-acid--AMP ligase FadD32 (Mycobacterium tuberculosis (strain ATCC 25618 / H37Rv)); assay: Inhibition of Mycobacterium tuberculosis H37Rv recombinant fadD32 at 200 uM relative to control
# [35] = biological target: T1, Long-chain-fatty-acid--AMP ligase FadD32; assay: Uncompetitive inhibition of Mycobacterium tuberculosis H37Rv recombinant FadD32 assessed as inhibition constant in presence of lauric acid by Lineweaver-burk plot analysis
# [36] = tested on: Mycobacterium tuberculosis; assay: Downregulation of efpA mRNA expression in Mycobacterium tuberculosis assessed as fold change by qRT-PCR analysis; format: functional
# [37] = tested on: Mycobacterium tuberculosis; assay: Downregulation of IspD mRNA expression in Mycobacterium tuberculosis assessed as fold change by qRT-PCR analysis; format: functional
# [38] = tested on: Mycobacterium tuberculosis; assay: Downregulation of ctpC mRNA expression in Mycobacterium tuberculosis assessed as fold change by qRT-PCR analysis; format: functional
smiles,measurement,setting,value
Oc1c(Br)cc(Br)cc1-c1cc(C(F)(F)F)no1,fold change (FC),[1],2
same,fold change (FC),[2],2
same,fold change (FC),[3],2
same,Activity,[4],Non-toxic
same,Activity,[5],Non-toxic
same,IC50,[6],20.8 µg/mL
same,Activity,THP-1,Non-toxic
same,Activity,[7],Non-toxic
same,Activity,[8],Active
same,IC50,[9],4.8 µg/mL
same,Activity,[10],Active
same,Activity,[11],Active
same,fold change (FC),[12],2
same,pKi,[13],4.26
same,Activity,[14],Active
same,Activity,[15],Non-toxic
same,Activity,[16],Active
same,fold change (FC),[17],2
same,Activity,[18],Active
same,Activity,[19],Active
same,Activity,[20],Non-toxic
same,Activity,[21],Non-toxic
same,Activity,RAW264.7,Non-toxic
same,Activity,[22],Active
same,Activity,[23],Active
same,inhibition,[24],Active
same,inhibition,[25],50%
same,Activity,[26],Active
same,Activity,Escherichia coli,inactive
same,fold change (FC),[27],2
same,fold change (FC),[28],2
same,Activity,[29],Non-toxic
same,fold change (FC),[30],2
same,Activity,[31],Active
same,Activity,[32],Active
same,fold change (FC),[33],2
same,inhibition,[34],95%
same,pKi,[35],4.32
same,fold change (FC),[36],2
same,fold change (FC),[37],2
same,fold change (FC),[38],2
